Reference: US11034648B2, “Cystobactamide derivatives” (priority 2017, dated 2021)
In brackets after ≈: the same amount, converted by molar mass. Read-outs that look alike come from different tables or passages of the source.

Experiments:
E. coli ΔtolC = experiment: microbe, parasite or virus in culture; format: cell-based; conditions: Escherichia coli, 16 h, read-out: MIC E. coli ΔtolC, small panel, Tables 1a/1b; no visual growth after approx. 16 h
Method: (§1) Cystobactamid derivatives synthesized were tested against relevant Gram negative and positive bacteria of clinical interest. Experimental procedures used for the biological characterization of the compounds are the same as previously described in WO 2016/082934.
(§2) Bacterial strains used in susceptibility assays (minimum inhibitory concentration, MIC) were either part of our internal strain collection or purchased from the German Collection of Microorganisms and Cell Cultures (Deutsche Sammlung von Mikroorganismen und Zellkulturen, DSMZ) and the American Type Culture Collection (ATCC). The susceptible E. coli strain (WT) and fluoroquinolone-resistant mutants E. coli WT-3 and WT-III were kindly provided by Prof Dr. P. Heisig, Pharmaceutical Biology and Microbiology, University of Hamburg, Germany. The efflux-deficient strain P. aeruginosa ΔmexAB was kindly provided by Prof Dr. S. Häußler, Institute for Molecular Bacteriology, TWINCORE, Hannover, Germany. All compounds were prepared as DMSO stocks and MIC values were determined in standard microbroth dilution assays in 96-well MTPs as described in Baumann et al., Angew Chem Int Ed Engl. 2014; 53(52):14605-9. In brief, overnight cultures of bacteria were diluted in either tryptic soy broth (TSB: 1.7% peptone casein, 0.3% peptone soymeal, 0.25% glucose, 0.5% NaCl, 0.25% K2HPO4; pH 7.3; S. pneumoniae and E. faecalis) or cation-adjusted Müller-Hinton Broth (BBL™, BD; all other bacteria) and adjusted to 10^4-10^6 cfu/mL. Bacteria were grown in the presence of the derivatives in serial dilution for approx. 16 h at 30-37° C. MIC values were determined and were defined as the antibiotic concentration at which no visual growth of bacteria was observed.

P. aeruginosa ΔmexAB = experiment: microbe, parasite or virus in culture; format: cell-based; conditions: Pseudomonas aeruginosa, 16 h, read-out: MIC P. aeruginosa ΔmexAB, efflux-deficient strain; small panel, Tables 1a/1b
Method: as §1, §2

A. baumannii DSM-30008 = experiment: MIC, microbroth dilution susceptibility assay; format: cell-based; conditions: Acinetobacter baumannii, DSM30008; large panel, Table 2a
Method: as §1, §2

C. freundii DSM-30039 = experiment: MIC, microbroth dilution susceptibility assay; format: cell-based; conditions: Citrobacter freundii, DSM30039; large panel, Table 2a
Method: as §1, §2

E. aerogenes DSM-30053 = experiment: MIC, microbroth dilution susceptibility assay; format: cell-based; conditions: Klebsiella aerogenes, DSM30053; large panel, Table 2a
Method: as §1, §2

E. coli WT DSM-1116 = experiment: MIC, microbroth dilution susceptibility assay; format: cell-based; conditions: Escherichia coli, no visual growth after approx. 16 h
Method: as §1, §2

E. coli WT = experiment: MIC, microbroth dilution susceptibility assay; format: cell-based; conditions: Escherichia coli; large panel, Table 2a
Method: as §1, §2

K. pneumoniae DSM-30104 = experiment: MIC, microbroth dilution susceptibility assay; format: cell-based; conditions: Klebsiella pneumoniae, DSM30104; large panel, Table 2a
Method: as §1, §2

P. aeruginosa WT PA14 = experiment: MIC, microbroth dilution susceptibility assay; format: cell-based; conditions: Pseudomonas aeruginosa
Method: as §1, §2

P. vulgaris DSM-2140 = experiment: MIC, microbroth dilution susceptibility assay; format: cell-based; conditions: Proteus vulgaris, DSM2140; large panel, Table 2a
Method: as §1, §2

S. aureus ATCC-29213 = experiment: MIC, microbroth dilution susceptibility assay; format: cell-based; conditions: Staphylococcus aureus, ATCC29213; large panel, Table 2a
Method: as §1, §2

S. aureus Newman = experiment: MIC, microbroth dilution susceptibility assay; format: cell-based; conditions: Staphylococcus aureus, NEWMAN, read-out: MIC S. aureus Newman
Method: as §1, §2

S. marcescens DSM-30121 = experiment: MIC, microbroth dilution susceptibility assay; format: cell-based; conditions: Serratia marcescens, DSM30121; large panel, Table 2a
Method: as §1, §2

E. coli gyrase = target: T1, E. coli gyrase (Escherichia coli, UniProt P0AES4+P0AES6); experiment: E. coli gyrase supercoiling (sc) assay; format: biochemical; conditions: supercoiling assay kit, agarose gel quantification; read-out: Ec gyrase sc IC50
T1 construct: purchased Inspiralis
Method: The target activity on E. coli gyrase was assessed as described in Baumann et al., Angew Chem Int Ed Engl. 2014; 53(52):14605-9 using a commercial supercoiling (sc) assay kit from Inspiralis according to the manufacturer's instructions. The samples were separated on 0.8% (w/v) agarose gels and relaxed and supercoiled plasmid was visualized by ethidium bromide staining. Half-inhibitory concentrations (IC50) were calculated after image analysis and quantification (ImageJ) based on sigmoidal curve fitting (OriginPro).

[1] = DSM1116, small panel, Tables 1a/1b, read-out: MIC E. coli WT DSM-1116
[2] = PA14, small panel, Tables 1a/1b, read-out: MIC P. aeruginosa WT PA14
[3] = DSM1116, 16 h, read-out: MIC E. coli WT DSM-1116, small panel, Tables 1a/1b
[4] = PA14, read-out: MIC P. aeruginosa WT PA14

T1 sequence (P0AES4 whole entry, one chain of several): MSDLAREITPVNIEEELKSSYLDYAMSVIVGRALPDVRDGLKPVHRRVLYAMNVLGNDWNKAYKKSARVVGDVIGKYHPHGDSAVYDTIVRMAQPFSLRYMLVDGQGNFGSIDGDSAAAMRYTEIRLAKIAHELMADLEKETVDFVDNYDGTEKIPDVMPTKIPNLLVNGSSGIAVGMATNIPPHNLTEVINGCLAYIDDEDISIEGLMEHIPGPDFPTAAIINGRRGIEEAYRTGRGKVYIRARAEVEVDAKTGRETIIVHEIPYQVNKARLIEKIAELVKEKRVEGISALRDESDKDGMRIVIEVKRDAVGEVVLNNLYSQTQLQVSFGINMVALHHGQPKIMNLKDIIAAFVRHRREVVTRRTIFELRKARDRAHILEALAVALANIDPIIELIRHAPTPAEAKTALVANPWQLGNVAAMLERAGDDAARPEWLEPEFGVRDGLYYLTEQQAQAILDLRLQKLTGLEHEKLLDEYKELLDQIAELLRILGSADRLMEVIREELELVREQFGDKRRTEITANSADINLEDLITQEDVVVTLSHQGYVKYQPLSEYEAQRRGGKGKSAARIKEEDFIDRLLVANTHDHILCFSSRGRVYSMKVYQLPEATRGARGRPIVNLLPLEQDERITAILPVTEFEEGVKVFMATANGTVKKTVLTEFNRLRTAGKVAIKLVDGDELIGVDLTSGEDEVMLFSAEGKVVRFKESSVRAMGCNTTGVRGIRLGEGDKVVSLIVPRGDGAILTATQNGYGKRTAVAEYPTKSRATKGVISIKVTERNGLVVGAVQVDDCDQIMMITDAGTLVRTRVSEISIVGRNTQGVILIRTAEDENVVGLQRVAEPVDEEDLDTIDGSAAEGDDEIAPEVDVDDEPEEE

SMILES	MIC (E. coli ΔtolC) [µg/mL]	MIC (P. aeruginosa ΔmexAB) [µg/mL]	MIC (A. baumannii DSM-30008) [µg/mL]	MIC (C. freundii DSM-30039) [µg/mL]	MIC (E. aerogenes DSM-30053) [µg/mL]	MIC (E. coli WT DSM-1116; [1]) [µg/mL]	MIC (E. coli WT) [µg/mL]	MIC (K. pneumoniae DSM-30104) [µg/mL]	MIC (P. aeruginosa WT PA14; [2]) [µg/mL]	MIC (P. vulgaris DSM-2140) [µg/mL]	MIC (S. aureus ATCC-29213) [µg/mL]	MIC (S. aureus Newman; small panel, Tables 1a/1b) [µg/mL]	MIC (S. marcescens DSM-30121) [µg/mL]	MIC (E. coli WT DSM-1116; [3]) [µg/mL]	MIC (P. aeruginosa WT PA14; [4]) [µg/mL]	MIC (S. aureus Newman) [µg/mL]	IC50 (E. coli gyrase) [µM]
CC(C)Oc1c(NC(=O)c2ccc(NC(=O)c3ccc(NC(=O)[C@H](CC(N)=O)NC(=O)c4ccc(NC(=O)c5ccc([N+](=O)[O-])cc5)cc4)cc3)c(OC(C)C)c2O)ccc(C(=O)O)c1O [Compound 61, (S)-4-(4-(4-(4-amino-2-(4-(4-nitrobenzamido)benzamido)-4-oxobutanamido)benzamido)-2-hydroxy-3-isopropoxybenzamido)-2-hydroxy-3-isopropoxybenzoic acid]	0.125 to 0.25 (≈ 0.138 to 0.276 µM)	1 to 2 (≈ 1.1 to 2.21 µM)	1 (≈ 1.1 µM)	0.5 (≈ 0.552 µM)	> 64	0.5 (≈ 0.552 µM)	0.5 (≈ 0.552 µM)	> 64	> 64	0.5 (≈ 0.552 µM)	0.05 (≈ 0.0552 µM)	0.05 (≈ 0.0552 µM)	> 64				
CC(C)Oc1c(N)ccc(C(=O)Nc2ccc(C(=O)N[C@@H](CC(N)=O)C(=O)Nc3ccc(C(=O)Nc4ccc(C(=O)Nc5ccc(C(=O)O)cc5)c(O)c4OC(C)C)cc3)cc2)c1O [Compound 49, (S)-4-(4-(4-(4-amino-2-(4-(4-amino-2-hydroxy-3-isopropoxybenzamido)benzamido)-4-oxobutanamido)benzamido)-2-hydroxy-3-isopropoxybenzamido)benzoic acid]	0.01 to 0.06 (≈ 0.0114 to 0.0685 µM)	2 to 4 (≈ 2.28 to 4.57 µM)	32 (≈ 36.5 µM)	2 (≈ 2.28 µM)	> 64	2 (≈ 2.28 µM)	2 (≈ 2.28 µM)	> 64	> 64	4 (≈ 4.57 µM)	> 64	> 64	> 64				
CC(C)Oc1c(-n2cc(-c3ccc(NC(=O)[C@H](CC(N)=O)NC(=O)c4ccc(NC(=O)c5ccc(C#N)cc5)cc4)cc3)nn2)ccc(C(=O)Nc2ccc(C(=O)O)cc2)c1O [Compound 119, 4-(4-(4-(4-(4-amino-2-(4-(4-cyanobenzamido)benzamido)-4-oxobutanamido)phenyl)-1H-1,2,3-triazol-1-yl)-2-hydroxy-3-isopropoxybenzamido)benzoic acid]	< 0.03	2 (≈ 2.39 µM)												0.06 (≈ 0.0718 µM)	8 (≈ 9.57 µM)	< 0.03	1.5
CC(C)Oc1c(NC(=O)c2ccc(NC(=O)[C@H](CC(N)=O)NC(=O)c3ccc(NC(=O)c4ccc(C5(C(F)(F)F)N=N5)cc4)cc3)cc2)ccc(C(=O)Nc2ccc(C(=O)O)cc2)c1O [Compound 37, (S)-4-(4-(4-(4-amino-4-oxo-2-(4-(4-(3-(trifluoromethyl)-3H-diazirin-3-yl)benzamido)benzamido)butanamido)benzamido)-2-hydroxy-3-isopropoxybenzamido)benzoic acid]	8 (≈ 8.94 µM)	> 64												16 (≈ 17.9 µM)	> 64	> 64	16
CC(C)Oc1c(NC(=O)c2ccc(NC(=O)[C@H](CC(N)=O)NC(=O)c3ccc(C#Cc4ccc(C#N)cc4)cc3)cc2)ccc(C(=O)Nc2ccc(C(=O)O)cc2)c1O [Compound 128, (S)-4-(4-(4-(4-Amino-2-(4-((4-cyanophenyl)ethynyl)benzamido)-4-oxobutanamido)benzamido)-2-hydroxy-3-isopropoxybenzamido)benzoic acid]	0.06 (≈ 0.0757 µM)	0.5 (≈ 0.631 µM)												0.06 (≈ 0.0757 µM)	> 64	< 0.03	
C/C(=C\c1ccc(C#N)cc1)C(=O)Nc1ccc(C(=O)N[C@@H](CC(N)=O)C(=O)Nc2ccc(C(=O)Nc3ccc(C(=O)Nc4ccc(C(=O)O)c(O)c4OC(C)C)c(O)c3OC(C)C)cc2)cc1 [Compound 124, (S,E)-4-(4-(4-(4-Amino-2-(4-(3-(4-cyanophenyl)-2-methylacrylamido)benzamido)-4-oxobutanamido)benzamido)-2-hydroxy-3-isopropoxybenzamido)-2-hydroxy-3-isopropoxybenzoic acid]						0.5 (≈ 0.54 µM)						0.06 (≈ 0.0648 µM)		0.125 (≈ 0.135 µM)			0.2
CC(C)Oc1c(NC(=O)c2ccc(NC(=O)c3ccc(NC(=O)[C@H](CC(N)=O)NC(=O)c4ccc(NC(=O)c5ccc(C#N)cc5)cc4)cc3)c(OC(C)C)c2O)ccc(C(=O)O)c1O [Compound 62, (S)-4-(4-(4-(4-amino-2-(4-(4-cyanobenzamido)benzamido)-4-oxobutanamido)benzamido)-2-hydroxy-3-isopropoxybenzamido)-2-hydroxy-3-isopropoxybenzoic acid]	≤ 0.03	1 (≈ 1.13 µM)	0.5 (≈ 0.564 µM)	0.125 (≈ 0.141 µM)	> 64	0.25 (≈ 0.282 µM)	0.125 to 0.25 (≈ 0.141 to 0.282 µM)	> 64	> 64	0.25 (≈ 0.282 µM)	0.025 (≈ 0.0282 µM)	≤ 0.03	> 64				
Cc1cc(C#N)ccc1C(=O)Nc1ccc(C(=O)N[C@@H](CC(N)=O)C(=O)Nc2ccc(C(=O)Nc3ccc(C(=O)Nc4ccc(C(=O)O)cc4)c(O)c3OC(C)C)cc2)cc1 [Compound 50, (S)-4-(4-(4-(4-amino-2-(4-(4-cyano-2-methylbenzamido)benzamido)-4-oxobutanamido)benzamido)-2-hydroxy-3-isopropoxybenzamido)benzoic acid]	0.03 (≈ 0.0363 µM)	2 (≈ 2.42 µM)				0.5 (≈ 0.605 µM)			> 64			64 (≈ 77.5 µM)					
CC(C)Oc1c(NC(=O)c2ccc(NC(=O)[C@H](CC(N)=O)NC(=O)c3ccc(NC(=O)c4ccc(C#N)cc4)cc3)cc2)ccc(C(=O)Nc2cc(C(=O)O)n(C)c2)c1O [Compound 88, (S)-4-(4-(4-(4-amino-2-(4-(4-cyanobenzamido)benzamido)-4-oxobutanamido)benzamido)-2-hydroxy-3-isopropoxybenzamido)-1-methyl-1H-pyrrole-2-carboxylic acid]	< 0.03	8 (≈ 9.82 µM)				0.5 (≈ 0.614 µM)			> 64			64 (≈ 78.5 µM)					
